The subject of data set [1] is patient addicted to narcotics. Put plainly: Clinical treatment of acute and severe diarrhea accompanying rapid narcotic detoxification (acute withdrawal). The data set is classed as in vivo, human. As to conditions: parenteral, about 0.025 mg to about 0.1 mg octreotide, preferably about 0.0007 mg/kg, before nalmefene. As to the method: A medication to induce unconsciousness is administered, preferably by the intravenous route, in doses appropriate for the patient's weight and medical condition. This medication should be a non-opioid derivative not related to the narcotic classification of drugs, such as midazolam, propofol, sodium pentothal, a combination thereof, or other drugs commonly used to induce unconsciousness. As a specific example, a dose of 0.3 milligrams of midazolam per kilogram of body weight administered intravenously is usually sufficient to produce unconsciousness.
After octreotide and glycopyrrolate have been administered and the patient's vital signs are stable, nalmefene is administered parenterally, preferably by intravenous route. For a 70 kilogram adult patient, the typical initial dose of parenteral nalmefene is from about 0.5-1.5 mg to no more than about 1.5-2.0 of nalmefene. The dosage is adjusted proportionally based on the weight of the patient, and the rate of administration of nalmefene may be titrated upward or downward depending on the response of the patient's sympathetic nervous system as evidence by monitoring of life functions and other clinical criteria. Some time thereafter, usually no more than four hours after said administration of nalmefene is complete, the patient can be expected to be detoxified and can be safely rendered back to a state of consciousness. […]

Data set [2] relates to patient addicted to narcotics. Put plainly: Clinical tolerability (bradycardia, abdominal distention) of octreotide during rapid narcotic detoxification. As to conditions: parenteral.
Source text: A patient addicted to narcotics undergoes intravenous cannulation by either the peripheral or central venous route, and the appropriate intravenous solution is infused intravenously at the required rate for the size and conditions of the patient. Monitors of life function are attached to the patient which may include a pulse oximeter, electrocardiogram patches, a blood pressure cuff attached to a sphygmomanometer and a means to measure the carbon dioxide of the patient's exhaled breath by way of capnography.
This is typically followed by intravenous administration of a medication such as a depolarizing or non-depolarizing neuromuscular blocking agent to facilitate intubation of the patient's trachea. The endotracheal tube is then secured in the correct anatomic position using usual anesthetic care measures. After stabilization of the patient's life functions as usually done in routine anesthetic management, the patient is administered parenterally about 0.025 mg to about 0.1 mg octreotide, preferably about 0.0007 mg/kg of body weight.
As noted previously, glycopyrrolate is preferred and is administered parenterally with the octreotide in an amount ranging from about 0.2 mg to above 0.4 mg glycopyrrolate. However, from about 0.2 mg to about 0.4 mg atropine administered parenterally is also effective.
In data set [3] the test system is patient addicted to narcotics. As to conditions: background statement, prior practice, dose not given; cited from earlier work.
Data set [4] relates to patient addicted to narcotics. As to conditions: background statement, prior practice, dose not given; cited from earlier work. The source holds these as a separate data set.

On to octreotide, for which the “prevention of acute and severe diarrhea accompanying acute detoxification” value in data set [1] was “sufficient to prevent the acute and severe diarrhea”. Also, the “bradycardia in the post-detoxification period” value in data set [2] (about 0.025 mg to about 0.05 mg octreotide every 12 hours) is “without causing significant bradycardia”. Besides, the bradycardia result in data set [2] (about 0.025 mg to about 0.1 mg octreotide, preferably about 0.0007 mg/kg) is recorded as “does not precipitate significant bradycardia”. In addition, in data set [2] (about 0.025 mg to about 0.1 mg octreotide, distention frequently observed at higher dosage levels), the abdominal distention entry is reported as “does not result in the abdominal distention”. Besides, the incidence of bradycardia entry in data set [3] is “unacceptable incidence of bradycardia”. Also, in data set [4], the “treating clinically significant diarrhea during rapid detoxification” value is “proven effective”.

The record behind these values is US6214792A, “Method for treating acute and severe diarrhea” (priority 1999, dated 2001).
